# Test system: D. balteata
# Assay: Soil activity of seed applied furathiocarb on maize cultivars Centaurus and Arjuna
# Assay type: in vivo, Diabrotica balteata
# Design: key to Scores of damage caused by D. balteata: 0-6 crown-root damage scale: 0 = no damage, 6 = <3 roots connect stem to soil
# From the text: Plastic pots, 1 litre volume, are filled with soil to within 3 cm of the top. Three soil types are used: • 1. A natural soil from Stein, Canton Aargau, Switzerland. This is heat sterilized and sieved to give an agglomerate size of less than 5 mm. Its composition is clay 20.7%, silt 13.7%, sand 65.6%, organic matter 3.2%, pH 5.6. Moisture is adjusted to 20% of dry weight. • 2. An artificial mixture of fine quartz sand and milled neutralized peat (2% of total by dry weight). The moisture is adjusted to 10% of dry weight. • 3. An artificial mixture similar to (2) except that the neutralized peat comprised 6% by dry weight. Moisture is adjusted to 20% for the mixture.
# One seed is sown 3 cm deep in the center of each of 10 pots per treatment. The pots are placed in a growth chamber with a relative humidity of 70% in a 12 hour daylength, light intensity 30,000 lux, using 26°C day and 22°C night temperatures. Soil moisture is maintained at the original level by daily irrigation with a commercially available nutrient solution.
# After two or three weeks of plant growth, 40 larvae of the banded cucumber beetle (Diabrotica balteata) are scattered on the surface of each pot. This insect species is commonly used as a laboratory model for the corn rootworm (Diabrotica spp.) which is a common soil insect pest of maize (Zea mays) in the USA. For this test, second instar larvae are selected. They are reared on maize seedlings at 23°C for 13 days from egglaying. The surface of the soil in the pots is disturbed and 40 larvae are scattered on the surface. The disturbance encourages burrowing of the larvae.
# The insects are allowed to feed on the plant roots for one week before the contents of each pot are separated into three components (roots, insects and soil) using a wet sieving technique. Living larvae are then counted and damage assessed on crown roots growing from the stem-base using the 0-6 scale shown below: • 0 = no damage • 1 = slight feeding damage, no roots eaten through • 2 = more than 3 places with feed damage, no roots eaten through • 3 = 1-2 roots eaten through • 4 = more than 2, but less than half the roots eaten • 5 = more than half the roots eaten, but at least 3 still connect stem and soil • 6 = less than 3 roots connect stem to soil
# This example includes the results of test series using 2 maize cultivars Centaurus and Arjuna. The basic test procedure is described in detail under example 20 therefore only differences are mentioned here.
# Seeds of the hybrid Centaurus are treated with 4 or 10 g/kg furathiocarb in either PVAc/PVAl or association polymer systems. The cultivar Arjuna is treated with 2.5 or 10 g/kg seed in the same polymer systems. The seeds are sown in two soil types, either a natural soil from Stein, Canton Aargau, Switzerland or in a 98% sand 2% peat mixture. Both these soil types are described previously.
# [1] = cultivar Arjuna, 98% Sand, 3 w, Association Polymer, dosage 2.5 g
# [2] = cultivar Arjuna, 98% Sand, 3 w, Association Polymer, dosage 10 g
# [3] = cultivar Arjuna, 98% Sand, 3 w, PVAc/PVAl, dosage 2.5 g
# [4] = cultivar Arjuna, 98% Sand, 3 w, PVAc/PVAl, dosage 10 g
# [5] = cultivar Arjuna, 98% Sand, 4 w, Association Polymer, dosage 2.5 g
# [6] = cultivar Arjuna, 98% Sand, 4 w, Association Polymer, dosage 10 g
# [7] = cultivar Arjuna, 98% Sand, 4 w, PVAc/PVAl, dosage 2.5 g
# [8] = cultivar Arjuna, 98% Sand, 4 w, PVAc/PVAl, dosage 10 g
# [9] = cultivar Arjuna, Stein Earth, 3 w, Association Polymer, dosage 2.5 g
# [10] = cultivar Arjuna, Stein Earth, 3 w, Association Polymer, dosage 10 g
# [11] = cultivar Arjuna, Stein Earth, 3 w, PVAc/PVAl, dosage 2.5 g
# [12] = cultivar Arjuna, Stein Earth, 3 w, PVAc/PVAl, dosage 10 g
# [13] = cultivar Arjuna, Stein Earth, 4 w, Association Polymer, dosage 2.5 g
# [14] = cultivar Arjuna, Stein Earth, 4 w, Association Polymer, dosage 10 g
# [15] = cultivar Arjuna, Stein Earth, 4 w, PVAc/PVAl, dosage 2.5 g
# [16] = cultivar Arjuna, Stein Earth, 4 w, PVAc/PVAl, dosage 10 g
# [17] = hybrid Centaurus, 98% Sand, 3 w, Association Polymer, dosage 4 g
# [18] = hybrid Centaurus, 98% Sand, 3 w, Association Polymer, dosage 10 g
# [19] = hybrid Centaurus, 98% Sand, 3 w, PVAc/PVAl, dosage 4 g
# [20] = hybrid Centaurus, 98% Sand, 3 w, PVAc/PVAl, dosage 10 g
# [21] = hybrid Centaurus, 98% Sand, 4 w, Association Polymer, dosage 4 g
# [22] = hybrid Centaurus, 98% Sand, 4 w, Association Polymer, dosage 10 g
# [23] = hybrid Centaurus, 98% Sand, 4 w, PVAc/PVAl, dosage 4 g
# [24] = hybrid Centaurus, 98% Sand, 4 w, PVAc/PVAl, dosage 10 g
# [25] = hybrid Centaurus, Stein Earth, 3 w, Association Polymer, dosage 4 g
# [26] = hybrid Centaurus, Stein Earth, 3 w, Association Polymer, dosage 10 g
# [27] = hybrid Centaurus, Stein Earth, 3 w, PVAc/PVAl, dosage 4 g
# [28] = hybrid Centaurus, Stein Earth, 3 w, PVAc/PVAl, dosage 10 g
# [29] = hybrid Centaurus, Stein Earth, 4 w, Association Polymer, dosage 4 g
# [30] = hybrid Centaurus, Stein Earth, 4 w, Association Polymer, dosage 10 g
# [31] = hybrid Centaurus, Stein Earth, 4 w, PVAc/PVAl, dosage 4 g
# [32] = hybrid Centaurus, Stein Earth, 4 w, PVAc/PVAl, dosage 10 g
structure (smiles),measurement,setting,value
CCCCOC(=O)N(C)SN(C)C(=O)Oc1cccc2c1OC(C)(C)C2 [furathiocarb],Percent D. balteata survival,[1],5%
same,Scores of damage caused by D. balteata,[1],1.4
same,Percent D. balteata survival,[2],8%
same,Scores of damage caused by D. balteata,[2],1.2
same,Percent D. balteata survival,[3],20%
same,Scores of damage caused by D. balteata,[3],3.0
same,Percent D. balteata survival,[4],20%
same,Scores of damage caused by D. balteata,[4],2.8
same,Percent D. balteata survival,[5],17%
same,Scores of damage caused by D. balteata,[5],2.8
same,Percent D. balteata survival,[6],0%
same,Scores of damage caused by D. balteata,[6],0.6
same,Percent D. balteata survival,[7],39%
same,Scores of damage caused by D. balteata,[7],3.4
same,Percent D. balteata survival,[8],21%
same,Scores of damage caused by D. balteata,[8],3.2
same,Percent D. balteata survival,[9],1%
same,Scores of damage caused by D. balteata,[9],3.6
same,Percent D. balteata survival,[10],1%
same,Scores of damage caused by D. balteata,[10],1.8
same,Percent D. balteata survival,[11],5%
same,Scores of damage caused by D. balteata,[11],3.2
same,Percent D. balteata survival,[12],3%
same,Scores of damage caused by D. balteata,[12],3.0
same,Percent D. balteata survival,[13],17%
same,Scores of damage caused by D. balteata,[13],3.8
same,Percent D. balteata survival,[14],0%
same,Scores of damage caused by D. balteata,[14],2.3
same,Percent D. balteata survival,[15],11%
same,Scores of damage caused by D. balteata,[15],3.0
same,Percent D. balteata survival,[16],14%
same,Scores of damage caused by D. balteata,[16],3.4
same,Percent D. balteata survival,[17],2%
same,Scores of damage caused by D. balteata,[17],1.4
same,Percent D. balteata survival,[18],4%
same,Scores of damage caused by D. balteata,[18],0
same,Percent D. balteata survival,[19],17%
same,Scores of damage caused by D. balteata,[19],3.0
same,Percent D. balteata survival,[20],8%
same,Scores of damage caused by D. balteata,[20],1.8
same,Percent D. balteata survival,[21],8%
same,Scores of damage caused by D. balteata,[21],1.6
same,Percent D. balteata survival,[22],8%
same,Scores of damage caused by D. balteata,[22],1.2
same,Percent D. balteata survival,[23],36%
same,Scores of damage caused by D. balteata,[23],3.4
same,Percent D. balteata survival,[24],30%
same,Scores of damage caused by D. balteata,[24],3.6
same,Percent D. balteata survival,[25],0%
same,Scores of damage caused by D. balteata,[25],0.8
same,Percent D. balteata survival,[26],1%
same,Scores of damage caused by D. balteata,[26],1.0
same,Percent D. balteata survival,[27],1%
same,Scores of damage caused by D. balteata,[27],2.1
same,Percent D. balteata survival,[28],1%
same,Scores of damage caused by D. balteata,[28],1.0
same,Percent D. balteata survival,[29],4%
same,Scores of damage caused by D. balteata,[29],2.1
same,Percent D. balteata survival,[30],7%
same,Scores of damage caused by D. balteata,[30],1.9
same,Percent D. balteata survival,[31],4%
same,Scores of damage caused by D. balteata,[31],1.8
same,Percent D. balteata survival,[32],10%
same,Scores of damage caused by D. balteata,[32],2.2
